According to ChEMBL document CHEMBL1921739, “Diabetic nephropathy-related active cyclic peptides from the roots of Brachystemma calycinum” (Bioorg Med Chem Lett, 2011):
Calls of active or inactive are those of the source. No cut-off for these calls is given here. Peptide text beside a SMILES is read from it.

Key:
[1] = Antidiabetic nephropathy activity in rat CRL-2573 cells assessed as inhibition of high glucose-induced IL-6 production at 10 uM preincubated for 1 hr before glucose challenge measured after 24 hrs by ELISA; type: functional, cell-based
[2] = Antidiabetic nephropathy activity in rat CRL-2573 cells assessed as inhibition of high glucose-induced MCP-1 production at 10 uM preincubated for 1 hr before glucose challenge measured after 24 hrs by ELISA; type: functional, cell-based
[3] = Antidiabetic nephropathy activity in rat CRL-2573 cells assessed as inhibition of high glucose-induced collagen 4production at 1 uM preincubated for 1 hr before glucose challenge measured after 24 hrs by ELISA; type: functional, cell-based
[4] = Antidiabetic nephropathy activity in rat CRL-2573 cells assessed as inhibition of high glucose-induced ROS production at 1 to 10 uM by flow cytometry; type: functional, cell-based
[5] = Cytotoxicity against rat CRL-2573 cells assessed as cell viability at 10 uM after 24 hrs by trypan blue exclusion assay; type: cell-based; conditions: crl-2573, 24 h

Structure (SMILES)	Activity [1]	Activity [2]	Activity [3]	Activity [4]	Activity [5]
CC[C@H](C)[C@@H]1NC(=O)[C@@H]2CCCN2C(=O)[C@@H]2CCCN2C(=O)[C@H](Cc2ccc(O)cc2)NC(=O)[C@H](CO)NC(=O)[C@H](C)NC(=O)[C@H](Cc2ccccc2)NC(=O)[C@H](CO)NC1=O [DUANBANHUAIN A] (cyclo(ASYPPISF))	Active	Active	Active	Active	Non-toxic
CC(C)C[C@@H]1NC(=O)[C@H](CC(=O)O)NC(=O)[C@H](Cc2c[nH]c3ccccc23)NC(=O)[C@H](C)NC(=O)[C@@H]2CCCN2C(=O)CNC(=O)[C@H](Cc2ccccc2)NC(=O)[C@@H]2CCCN2C1=O (cyclo(AWDLPFGP))	Active	Active	–	Active	–
